Results reported in patent US11440913B2, “Aminoimidazopyridazines as kinase inhibitors” (BRISTOL-MYERS SQUIBB COMPANY, priority 2017, dated 2022).
Counter-ions that a name gives are not always drawn. Like-named read-outs stand apart in the source and are kept apart here.

Assays:
[1] = biological target: His-GST-TVMV-hRIPK1(1-324) (Homo sapiens (Human), UniProt Q13546); experiment: RIPK1 HTRF Binding Assay; conditions: HTRF binding, 1 h at rt; read-out: RIPK1 (IC50)
In short: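 HTRF probe-displacement binding: 1 nM His-GST-TVMV-hRIPK1(1-324) (baculovirus construct), 90.6 nM probe, 0.2 nM anti-GST-Tb in 20 mM HEPES, 10 mM MgCl2, 0.015% Brij-35, 4 mM DTT, 0.05 mg/mL BSA. Incubated 1 h at rt; FRET 520/495 nm ratio, inhibition relative to DMSO-only wells.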

[2] = test system: MLKL phosphorylation in HT29-L23 human colorectal adenocarcinoma cells; experiment: MLKL Phosphorylation High-Content Assay; type: cell-based; conditions: 6 h, necroptosis induced with TNFα, SMAC mimetic and Z-VAD, read-out: pMLKL (IC50)
In short: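 HT29-L23 cells pretreated 30 min at 37 °C with compound (6.25 to 0.106 μM final), then necroptosis induced with TNFα 35 ng/mL, SMAC mimetic 700 nM and Z-VAD 140 nM for 6 h. Fixed cells immunostained for MLKL pS358 and imaged; IC50 and Ymax from 4-parameter logistic fit.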

Sequence of His-GST-TVMV-hRIPK1(1-324) (Q13546 1-324): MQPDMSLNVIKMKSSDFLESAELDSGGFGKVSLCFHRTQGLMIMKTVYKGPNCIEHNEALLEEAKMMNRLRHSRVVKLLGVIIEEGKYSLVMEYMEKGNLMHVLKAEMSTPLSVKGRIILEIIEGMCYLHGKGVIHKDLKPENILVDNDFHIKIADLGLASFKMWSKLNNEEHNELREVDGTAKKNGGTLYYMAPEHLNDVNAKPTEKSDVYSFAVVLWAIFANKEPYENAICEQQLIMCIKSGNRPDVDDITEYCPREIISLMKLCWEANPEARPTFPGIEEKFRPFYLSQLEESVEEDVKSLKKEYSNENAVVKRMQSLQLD

With `CC(=O)Nc1cn2nc(-c3cnc(C)c(C(=O)NCC(C)(O)Cc4ccc(F)cc4)c3)ccc2n1` (stereo not drawn) [Example 356, 5-{2-acetamidoimidazo[1,2-b]pyridazin-6-yl}-N-[3-(4-fluorophenyl)-2-hydroxy-2-methylpropyl]-2-methylpyridine-3-carboxamide] the IC50 [1] was 150 nM and the IC50 ([2]; Homo sapiens) was 485 nM.

Work on “5-{2- acetamidoimidazo [1,2-b]pyridazin- 6-yl}-N-{[2- fluoro-5- (trifluoromethoxy) phenyl] (Â^2Hâ,,)methyl}-2- methylbenzamide [Example 426]” yielded an IC50 [1] of 1 nM and an IC50 [2] of 7 nM.

For `CC(=O)Nc1cn2nc(-c3cc(C(=O)NCc4cc(OC(F)(F)F)ccc4F)c(C)nc3C)ccc2n1` [Example 81, 5-{2-acetamidoimidazo[1,2-b]pyridazin-6-yl}-N-{[2-fluoro-5-(trifluoromethoxy)phenyl]methyl}-2,6-dimethylpyridine-3-carboxamide], the IC50 [1] was 5 nM and the IC50 ([2]; Homo sapiens) was 2 nM.

Work on `COc1ncc(-c2ccc3nc(NC(C)=O)cn3n2)cc1C(=O)NCc1ccc(F)c(F)c1OC(C)C1CC1` (stereo not drawn) [Example 131, N-{[2-(1-cyclopropylethoxy)-3,4-difluorophenyl]methyl}-5-{2-acetamidoimidazo[1,2-b]pyridazin-6-yl}-2-methoxypyridine-3-carboxamide] yielded an IC50 [1] of 79 nM and an IC50 [2] of 481 nM.

For `CC(=O)Nc1cn2nc(-c3cc(C(=O)NCc4cc(F)cc(F)c4OCC4CC4)c(C)nc3C)ccc2n1` [Example 87, N-{[2-(cyclopropylmethoxy)-3,5-difluorophenyl]methyl}-5-{2-acetamidoimidazo[1,2-b]pyridazin-6-yl}-2,6-dimethylpyridine-3-carboxamide], the IC50 [1] was 3 nM and the IC50 ([2]; Homo sapiens) was 3 nM.

`Cc1ncc(-c2ccc3nc(NC(=O)CN4CCN(C)CC4)cn3n2)cc1C(=O)N[C@H](C)c1cc(OC(F)(F)F)ccc1F` [Example 336, N-[(1R)-1-[2-fluoro-5-(trifluoromethoxy)-phenyl]ethyl]-2-methyl-5-{2-[2-(4-methylpiperazin-1-yl)acetamido]imidazo[1,2-b]pyridazin-6-yl}pyridine-3-carboxamide] showed an IC50 [1] of 19 nM and an IC50 ([2]; Homo sapiens) of 8 nM.

Work on `COc1ncc(-c2ccc3nc(NC(C)=O)cn3n2)cc1C(=O)NC(C)c1cccc(OC(F)(F)F)c1` (stereo not drawn) [Example 123, 5-{2-acetamidoimidazo[1,2-b]pyridazin-6-yl}-2-methoxy-N-{1-[3-(trifluoro-methoxy)phenyl]ethyl}pyridine-3-carboxamide] yielded an IC50 [1] of 37 nM and an IC50 ([2]; Homo sapiens) of 218 nM.

`COc1nc(C)c(-c2ccc3nc(NC(C)=O)cn3n2)cc1C(=O)NCc1ccccc1OC(F)(F)F` [Example 19, 5-{2-acetamidoimidazo[1,2-b]pyridazin-6-yl}-2-methoxy-6-methyl-N-{[2-(trifluoromethoxy)phenyl]methyl}pyridine-3-carboxamide] showed an IC50 [1] of 12 nM and an IC50 ([2]; Homo sapiens) of 34 nM.

Compound `CC(=O)Nc1cn2nc(-c3cc(C(=O)NCC[C@H](O)c4ccc(Cl)cc4)c(C)nc3C)ccc2n1` [Example 82, N-[(3S)-3-(4-chlorophenyl)-3-hydroxypropyl]-5-{2-acetamidoimidazo[1,2-b]pyridazin-6-yl}-2,6-dimethylpyridine-3-carboxamide] has an IC50 [1] of 21 nM and an IC50 ([2]; Homo sapiens) of 18 nM.

Compound `COc1ncc(-c2ccc3nc(NC(C)=O)cn3n2)cc1C(=O)NCCC(C)c1ccccc1` (stereo not drawn) [Example 25, 5-{2-acetamidoimidazo[1,2-b]pyridazin-6-yl}-2-methoxy-N-(3-phenylbutyl)pyridine-3-carboxamide] has an IC50 [1] of 2 nM and an IC50 ([2]; Homo sapiens) of 9 nM.

Compound `CC(=O)Nc1cn2nc(-c3cc(C(=O)NCc4cccc(OC(F)(F)F)c4)c(C)nc3C)ccc2n1` [Example 88, 5-{2-acetamidoimidazo[1,2-b]pyridazin-6-yl}-2,6-dimethyl-N-{[3-(trifluorometh-oxy)phenyl]methyl}pyridine-3-carboxamide] has an IC50 [1] of 25 nM and an IC50 ([2]; Homo sapiens) of 42 nM.

With `[2H]C([2H])([2H])[C@@H](NC(=O)c1cc(-c2ccc3nc(NC(C)=O)cn3n2)cnc1C)c1cc(C(F)(F)F)ccc1F` [Example 197, 5-{2-acetamidoimidazo[1,2-b]pyridazin-6-yl}-N-[(1R)-1-[2-fluoro-5-(trifluoromethyl)phenyl](2,2,2-deutero)ethyl]-2-methylpyridine-3-carboxamide] the IC50 [1] was 72 nM and the IC50 ([2]; Homo sapiens) was 23 nM.

With `COc1nc(C)c(-c2ccc3nc(NC(C)=O)cn3n2)cc1C(=O)NCc1c(F)cc(F)cc1OCC1CCCC1` [Example 308, N-{[2-(cyclopentylmethoxy)-4,6-difluorophenyl]methyl}-5-{2-acetamidoimidazo[1,2-b]pyridazin-6-yl}-2-methoxy-6-methylpyridine-3-carboxamide] the IC50 [1] was 8 nM and the IC50 ([2]; Homo sapiens) was 11 nM.

Work on `CCC(=O)Nc1cn2nc(-c3cnc(OC)c(C(=O)NCc4cc(F)cc(F)c4OCC4CC4)c3)ccc2n1` [Example 4, N-{[2-(cyclopropylmethoxy)-3,5-difluorophenyl]methyl}-2-methoxy-5-{2-propanamidoimidazo[1,2-b]pyridazin-6-yl}pyridine-3-carboxamide] yielded an IC50 [1] of 2 nM and an IC50 ([2]; Homo sapiens) of 10 nM.

With `COc1ncc(-c2ccc3nc(NC(C)=O)cn3n2)cc1C(=O)NCc1ccccc1OCC1CCCC1` [Example 164, N-{[2-(cyclopentylmethoxy)phenyl]methyl}-5-{2-acetamidoimidazo[1,2-b]pyridazin-6-yl}-2-methoxypyridine-3-carboxamide] the IC50 [1] was 10 nM and the IC50 ([2]; Homo sapiens) was 32 nM.

Compound `CC(=O)Nc1cn2nc(-c3cnc(C)c(C(=O)Nc4cn(Cc5ccc(F)cc5)cn4)c3)ccc2n1` [Example 350, 5-{2-acetamidoimidazo[1,2-b]pyridazin-6-yl}-N-{1-[(4-fluorophenyl)methyl]-1H-imidazol-4-yl}-2-methylpyridine-3-carboxamide] has an IC50 [1] of 27 nM and an IC50 ([2]; Homo sapiens) of 169 nM.

`COc1ncc(-c2ccc3nc(NC(C)=O)cn3n2)cc1C(=O)NCc1cccc(F)c1OCC1CC1` [Example 151, N-{[2-(cyclopropylmethoxy)-3-fluorophenyl]methyl}-5-{2-acetamidoimidazo[1,2-b]pyridazin-6-yl}-2-methoxypyridine-3-carboxamide, TFA] was tested, and the IC50 [1] was 8 nM and the IC50 [2] was 6 nM.

`COc1ncc(-c2ccc3nc(NC(C)=O)cn3n2)cc1C(=O)NCc1c(F)cccc1OC1CCOCC1` [Example 128, 5-{2-acetamidoimidazo[1,2-b]pyridazin-6-yl}-N-{[2-fluoro-6-(oxan-4-yloxy)phenyl]methyl}-2-methoxypyridine-3-carboxamide, TFA] showed an IC50 [1] of 9 nM and an IC50 [2] of 64 nM.

`CC(=O)Nc1cn2nc(-c3cnc(C)c(CNC(=O)c4cc(OC(F)(F)F)ccc4F)c3)ccc2n1` [Example 1, N-[(5-{2-acetamidoimidazo[1,2-b]pyridazin-6-yl}-2-methylpyridin-3-yl)methyl]-2-fluoro-5-(trifluoromethoxy)benzamide] showed an IC50 [1] of 101 nM and an IC50 ([2]; Homo sapiens) of 240 nM.

“3-{2- acetamidoimidazo [1,2-b]pyridazin- 6-yl}-2-fluoro- N-{[2-fluoro-5- (trifluoromethoxy) phenyl] (Â^2Hâ,,)methyl} benzamide [Example 430]” was tested, and the IC50 [1] was 3 nM and the IC50 [2] was 9 nM.

In the case of `COc1nc(C)c(-c2ccc3nc(NC(C)=O)cn3n2)cc1C(=O)N(C)Cc1cccc(OC(F)(F)F)c1` [Example 281, 5-{2-acetamidoimidazo[1,2-b]pyridazin-6-yl}-2-methoxy-N,6-dimethyl-N-{[3-(trifluoromethoxy)phenyl]methyl}pyridine-3-carboxamide], the IC50 [1] is reported as 6 nM and the IC50 ([2]; Homo sapiens) is reported as 4 nM.
